Key:
[1] = mn = molality of the nth substance listed, in mol/kg; conditions: 298.15 K, 101 kPa, Liquid
[2] = cn = amount concentration of the nth substance listed, in mol/dm3; conditions: 298.15 K, 101 kPa, Liquid; for molar conductivity: Alternating current cell with electrodes; for viscosity: Capillary tube (Ostwald / Ubbelohde) method
[3] = refractive index (Na D-line) (dimensionless); mn = molality of the nth substance listed, in mol/kg; conditions: 298.15 K, 101 kPa, Liquid, Standard Abbe refractometry

NCC(=O)O [2-aminoacetic acid] + O
Conditions | mass density [kg/m3] | molar conductivity [S·m2/mol] | refractive index | viscosity [mPa·s]
[1], m1 = 0.0521 | 998.7 | – | – | –
[1], m1 = 0.0997 | 1000.21 | – | – | –
[1], m1 = 0.1577 | 1002.02 | – | – | –
[1], m1 = 0.1992 | 1003.32 | – | – | –
[1], m1 = 0.2235 | 1004.07 | – | – | –
[1], m1 = 0.2902 | 1006.11 | – | – | –
[1], m1 = 0.3266 | 1007.22 | – | – | –
[1], m1 = 0.4495 | 1010.93 | – | – | –
[1], m1 = 0.5179 | 1012.94 | – | – | –
[2], c1 = 0.0007166 | – | 0.0153 | – | –
[2], c1 = 0.001486 | – | 0.0148 | – | –
[2], c1 = 0.002275 | – | 0.0146 | – | –
[2], c1 = 0.003892 | – | 0.0145 | – | –
[2], c1 = 0.00566 | – | 0.0142 | – | –
[2], c1 = 0.007383 | – | 0.0139 | – | –
[2], c1 = 0.00904 | – | 0.0137 | – | –
[2], c1 = 0.0116 | – | 0.0135 | – | –
[2], c1 = 0.01431 | – | 0.0132 | – | –
[2], c1 = 0.01747 | – | 0.0129 | – | –
[2], c1 = 0.02104 | – | 0.0126 | – | –
[2], c1 = 0.02475 | – | 0.0123 | – | –
[2], c1 = 0.052 | – | – | – | 0.881
[2], c1 = 0.0997 | – | – | – | 0.892
[2], c1 = 0.158 | – | – | – | 0.91
[2], c1 = 0.1999 | – | – | – | 0.92
[2], c1 = 0.2244 | – | – | – | 0.929
[2], c1 = 0.292 | – | – | – | 0.939
[2], c1 = 0.3289 | – | – | – | 0.945
[2], c1 = 0.4544 | – | – | – | 0.965
[2], c1 = 0.5246 | – | – | – | 0.98
[3], m1 = 0.0941 | – | – | 1.3333 | –
[3], m1 = 0.1492 | – | – | 1.3339 | –
[3], m1 = 0.1972 | – | – | 1.3345 | –
[3], m1 = 0.2611 | – | – | 1.3354 | –
[3], m1 = 0.2975 | – | – | 1.3359 | –
[3], m1 = 0.303 | – | – | 1.336 | –
[3], m1 = 0.3935 | – | – | 1.337 | –
[3], m1 = 0.4408 | – | – | 1.3376 | –

C[C@H](N)C(=O)O [(S)-2-aminopropanoic acid] + O
Conditions | mass density [kg/m3] | molar conductivity [S·m2/mol] | refractive index | viscosity [mPa·s]
[1], m1 = 0.0499 | 998.55 | – | – | –
[1], m1 = 0.0849 | 999.6 | – | – | –
[1], m1 = 0.1397 | 1001.23 | – | – | –
[1], m1 = 0.1784 | 1002.37 | – | – | –
[1], m1 = 0.2346 | 1004.02 | – | – | –
[1], m1 = 0.2731 | 1005.13 | – | – | –
[1], m1 = 0.3275 | 1006.7 | – | – | –
[1], m1 = 0.3551 | 1007.46 | – | – | –
[1], m1 = 0.4168 | 1009.23 | – | – | –
[1], m1 = 0.4513 | 1010.16 | – | – | –
[2], c1 = 0.0007166 | – | 0.0153 | – | –
[2], c1 = 0.001486 | – | 0.0148 | – | –
[2], c1 = 0.002275 | – | 0.0146 | – | –
[2], c1 = 0.003892 | – | 0.0145 | – | –
[2], c1 = 0.00566 | – | 0.0142 | – | –
[2], c1 = 0.007383 | – | 0.0139 | – | –
[2], c1 = 0.00904 | – | 0.0137 | – | –
[2], c1 = 0.0116 | – | 0.0135 | – | –
[2], c1 = 0.01431 | – | 0.0132 | – | –
[2], c1 = 0.01747 | – | 0.0129 | – | –
[2], c1 = 0.02104 | – | 0.0126 | – | –
[2], c1 = 0.02475 | – | 0.0123 | – | –
[2], c1 = 0.0532 | – | – | – | 0.886
[2], c1 = 0.091 | – | – | – | 0.891
[2], c1 = 0.1498 | – | – | – | 0.897
[2], c1 = 0.1918 | – | – | – | 0.902
[2], c1 = 0.2526 | – | – | – | 0.912
[2], c1 = 0.2941 | – | – | – | 0.921
[2], c1 = 0.3537 | – | – | – | 0.928
[2], c1 = 0.3827 | – | – | – | 0.936
[2], c1 = 0.4512 | – | – | – | 0.951
[2], c1 = 0.4876 | – | – | – | 0.957
[3], m1 = 0.0533 | – | – | 1.3326 | –
[3], m1 = 0.091 | – | – | 1.333 | –
[3], m1 = 0.1496 | – | – | 1.3337 | –
[3], m1 = 0.1913 | – | – | 1.3342 | –
[3], m1 = 0.2516 | – | – | 1.335 | –
[3], m1 = 0.2926 | – | – | 1.3355 | –
[3], m1 = 0.3514 | – | – | 1.3362 | –
[3], m1 = 0.3799 | – | – | 1.3365 | –
[3], m1 = 0.4471 | – | – | 1.3374 | –
[3], m1 = 0.4827 | – | – | 1.3378 | –

Reference: the NIST ThermoML archive (doi:10.1021/je900882r)
